{"source": "patent US20210253518A1", "about": "“KINASE INHIBITOR” (NISSAN CHEMICAL CORPORATION, priority 2018, published 2021)", "key": {"SGK2": {"biological_target": "T1, SGK2 (Homo sapiens, UniProt Q9HBY8)", "T1 sequence (Q9HBY8 1-367)": "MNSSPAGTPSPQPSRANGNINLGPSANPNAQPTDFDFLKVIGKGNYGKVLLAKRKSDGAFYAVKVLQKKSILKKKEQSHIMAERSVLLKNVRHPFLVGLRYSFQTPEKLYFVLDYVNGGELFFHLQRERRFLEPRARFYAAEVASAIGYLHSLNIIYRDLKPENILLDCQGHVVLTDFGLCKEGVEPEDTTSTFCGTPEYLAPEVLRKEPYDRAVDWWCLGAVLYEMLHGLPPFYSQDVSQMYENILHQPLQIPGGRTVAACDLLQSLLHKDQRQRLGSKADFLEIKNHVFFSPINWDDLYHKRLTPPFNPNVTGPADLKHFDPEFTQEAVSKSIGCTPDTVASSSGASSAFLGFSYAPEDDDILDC", "assay": "Off-chip Mobility Shift Assay (MSA method), kinase inhibition", "format": "biochemical", "settings": "for inhibition at 0.1 µM: read-out: inhibition (%) SGK2", "description": "(§1) For compound k-1:B-1, inhibitory activity evaluation (calculation of 50% inhibitory concentration (IC50)) was performed on 8 kinds of kinases (CGK2, LATS2, MSK1, p70S6K, PKACα, PKACβ, SGK2, SGK3). The activity was measured using the Off-chip Mobility Shift Assay (MSA method) described below. The compound was added such that the test concentration of k-1:B-1 was in 10 steps from the final concentration of 10 μM to 0.3 nM.\n(§2) As an analysis method of the data, the mean signal of the control well containing all reaction components was set to 0% inhibition, the mean signal without enzyme addition was set to 100% inhibition, and the inhibition rate was calculated from the mean signal of 2 wells of each test substance test. The IC50 value was obtained by approximating a plot based on the test substance concentration and inhibition rate to a 4 parameter logistics curve by using the Excel Solver add-in and by the non-linear least squares method.\n(§3) 5 μL of k-1:B-1 solution at 4-fold concentration, 5 μL of substrate/ATP/metal solution at 4-fold concentration, and 10 μL of kinase solution at 2-fold concentration, each prepared with assay buffer (20 mM HEPES, 0.01% Triton X-100, 2 mM DTT, pH 7.5), were mixed in the wells of a polypropylene 384-well plate and reacted at room temperature for 1 or 5 hr. Successively, 70 μL of Termination Buffer (QuickScout Screening Assist MSA; Carna Biosciences) was added to discontinue the reaction. Then, the substrate peptide and the phosphorylated peptide in the reaction solution were separated and quantified by the LabChip system (Perkin Elmer). The kinase reaction was evaluated by the resultant product ratio (P/(P+S)) calculated from the substrate peptide peak height (S) and the phosphorylated peptide peak height (P).\n(§4) For compounds k-1:H-7, k-1:H-1, k-1:D-1, k-1:J-1, and k-1:B-1, inhibitory rate at 100 nM was calculated on 8 kinds of kinases (CGK2, LATS2, MSK1, p70S6K, PKACα, PKACβ, SGK2, SGK3). The activity was measured using the MSA method. As an analysis method of the data, the mean signal of the control well containing all reaction components was set to 0% inhibition, the mean signal without enzyme addition was set to 100% inhibition, and the inhibition rate was calculated from the mean signal of 2 wells of each test substance test.\nas §3, with “a compound” for “k-1:B-1”"}, "p70S6K": {"biological_target": "p70S6K (Homo sapiens, UniProt P23443)", "sequence (P23443 whole entry)": "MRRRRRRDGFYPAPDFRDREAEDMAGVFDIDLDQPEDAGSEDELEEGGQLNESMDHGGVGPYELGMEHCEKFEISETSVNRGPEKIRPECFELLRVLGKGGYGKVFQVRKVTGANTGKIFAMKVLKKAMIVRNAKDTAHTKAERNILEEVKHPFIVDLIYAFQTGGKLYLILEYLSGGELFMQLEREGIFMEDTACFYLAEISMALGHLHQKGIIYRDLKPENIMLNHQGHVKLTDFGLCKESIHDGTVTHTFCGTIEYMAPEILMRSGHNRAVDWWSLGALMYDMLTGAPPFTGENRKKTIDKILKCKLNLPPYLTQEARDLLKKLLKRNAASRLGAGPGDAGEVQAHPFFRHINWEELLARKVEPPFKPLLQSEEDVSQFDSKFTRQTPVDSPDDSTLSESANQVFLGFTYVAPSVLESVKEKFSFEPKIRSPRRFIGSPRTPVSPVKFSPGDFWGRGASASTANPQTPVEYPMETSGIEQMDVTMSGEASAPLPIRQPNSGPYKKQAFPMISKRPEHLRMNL", "assay": "Off-chip Mobility Shift Assay (MSA method), kinase inhibition", "format": "biochemical", "settings": "for inhibition at 0.1 µM: read-out: inhibition (%) p70S6K", "description": "as §1, §2, §3, §4\nas §3, with “a compound” for “k-1:B-1”"}, "YAP protein": {"system": "YAP protein", "assay": "Imaging analysis of nuclear translocation in human bone marrow-derived mesenchymal stem cells", "format": "cell-based", "settings": "10 μM, 4 hr, no addition 8.96", "description": "(§5) Nine fields of view were imaged per well using a 20× objective lens of Operatta CLS. The cell nucleus region and the cytoplasm region were identified from the obtained fluorescence images by using the analysis software Harmony (manufactured by PerkinElmer), and AlexaFluor® 647 fluorescence intensity per unit area and the AlexaFluor® 555 fluorescence intensity per unit area in each region were extracted. The nuclear translocation was evaluated by calculating the ratio of the fluorescence intensity of the cell nucleus region to the fluorescence intensity of the cytoplasmic region from the extracted values. The value becomes greater than 1 as the YAP protein and TAZ protein transfer into the cell nucleus, and less than 1 when localized in the cytoplasm.\n(§6) Compounds k-1:B-1, k-1:H-1, and k-1:J-1 were evaluated for nuclear translocation of YAP protein and TAZ protein. For the nuclear translocation, imaging analysis was performed using the human bone marrow-derived mesenchymal stem cells (manufactured by PromoCell) and OperettaCLS (manufactured by PerkinElmer) described in Example 4. The compounds were added such that the final concentration of the test concentration of k-1:B-1, k-1:H-1, and k-1:J-1 was 10 μM.\n(§7) Human bone marrow-derived mesenchymal stem cells cultured according to the protocol recommended by PromoCell were seeded on a 96-well plate (manufactured by PerkinElmer, CellCarrier-Ultra) at 25,000 cells/90 μL/well on the cycloolefin bottom surface, and cultured in a CO2 incubator (37° C., 5% CO2) for 1 day. After culturing, k-1:B-1, k-1:H-1, and k-1:J-1 solutions having a concentration of 100 μM were added. The cells were cultured in a CO2 incubator at 37° C. for 4 hr. The medium was exchanged with 4% para-formaldehyde solution, and the cells were fixed by allowing to stand at room temperature for 10 min. The fixed cells were subjected to immunostaining by the method described in Example 4."}, "TAZ protein": {"system": "TAZ protein", "assay": "Imaging analysis of nuclear translocation in human bone marrow-derived mesenchymal stem cells", "format": "cell-based", "settings": "10 μM, 4 hr, no addition 10.05", "description": "as §5, §6, §7"}, "[1]": {"settings": "MSA method, 10 steps from 10 μM to 0.3 nM"}}, "note": "Read-outs that look alike come from different tables or passages of the source."}
{"smiles": "CC/C(=N\\NC(=O)NCc1cccc(O)c1)c1ccc(O)c(C)c1O", "note": "[k-1:J-1]", "values": [{"measurement": "inhibition at 0.1 µM", "setting": "SGK2", "value": 95.1, "unit": "%"}, {"measurement": "inhibition at 0.1 µM", "setting": "p70S6K", "value": 78.3, "unit": "%"}, {"measurement": "YAP nuclear translocation rate", "setting": "YAP protein", "value": 12.70}, {"measurement": "TAZ nuclear translocation rate", "setting": "TAZ protein", "value": 14.95}]}
{"smiles": "CCC(=NNC(=O)C(CC)Nc1ccccc1)c1ccc(O)c(C)c1O", "note": "(stereo not drawn) [k-1:H-7]", "values": [{"measurement": "inhibition at 0.1 µM", "setting": "SGK2; at 100 nM, MSA method", "value": 84.3, "unit": "%"}, {"measurement": "inhibition at 0.1 µM", "setting": "p70S6K; at 100 nM, MSA method", "value": 70.3, "unit": "%"}]}
{"smiles": "CCC(=NNC(=O)CNc1ccccc1)c1ccc(O)c(C)c1O", "note": "[k-1:H-1]", "values": [{"measurement": "inhibition at 0.1 µM", "setting": "SGK2; at 100 nM, MSA method", "value": 93.6, "unit": "%"}, {"measurement": "inhibition at 0.1 µM", "setting": "p70S6K; at 100 nM, MSA method", "value": 82, "unit": "%"}, {"measurement": "YAP nuclear translocation rate", "setting": "YAP protein", "value": 11.55}, {"measurement": "TAZ nuclear translocation rate", "setting": "TAZ protein", "value": 13.42}]}
{"smiles": "CC/C(=N\\NC(=O)CNc1cccc(O)c1)c1ccc(O)c(C)c1O", "note": "[k-1:D-1]", "values": [{"measurement": "inhibition at 0.1 µM", "setting": "SGK2", "value": 99.9, "unit": "%"}, {"measurement": "inhibition at 0.1 µM", "setting": "p70S6K", "value": 97.9, "unit": "%"}]}
{"smiles": "CC/C(=N\\NC(=O)C(C)Nc1ccccc1)c1ccc(O)c(C)c1O", "note": "(stereo not drawn) [k-1:B-1]", "values": [{"measurement": "IC50", "setting": "SGK2; [1]", "value": 0.0132, "unit": "µM"}, {"measurement": "inhibition at 0.1 µM", "setting": "SGK2; at 100 nM, MSA method", "value": 87.3, "unit": "%"}, {"measurement": "IC50", "setting": "p70S6K; [1]", "value": 0.0415, "unit": "µM"}, {"measurement": "inhibition at 0.1 µM", "setting": "p70S6K; at 100 nM, MSA method", "value": 67.6, "unit": "%"}, {"measurement": "YAP nuclear translocation rate", "setting": "YAP protein", "value": 10.17}, {"measurement": "TAZ nuclear translocation rate", "setting": "TAZ protein", "value": 11.59}]}
